# Reference: US20070027201A1 (Wyeth, priority 2005, published 2007)
# Target: T1, progesterone receptor (Homo sapiens, UniProt P06401)
# T1 sequence (P06401 1-933): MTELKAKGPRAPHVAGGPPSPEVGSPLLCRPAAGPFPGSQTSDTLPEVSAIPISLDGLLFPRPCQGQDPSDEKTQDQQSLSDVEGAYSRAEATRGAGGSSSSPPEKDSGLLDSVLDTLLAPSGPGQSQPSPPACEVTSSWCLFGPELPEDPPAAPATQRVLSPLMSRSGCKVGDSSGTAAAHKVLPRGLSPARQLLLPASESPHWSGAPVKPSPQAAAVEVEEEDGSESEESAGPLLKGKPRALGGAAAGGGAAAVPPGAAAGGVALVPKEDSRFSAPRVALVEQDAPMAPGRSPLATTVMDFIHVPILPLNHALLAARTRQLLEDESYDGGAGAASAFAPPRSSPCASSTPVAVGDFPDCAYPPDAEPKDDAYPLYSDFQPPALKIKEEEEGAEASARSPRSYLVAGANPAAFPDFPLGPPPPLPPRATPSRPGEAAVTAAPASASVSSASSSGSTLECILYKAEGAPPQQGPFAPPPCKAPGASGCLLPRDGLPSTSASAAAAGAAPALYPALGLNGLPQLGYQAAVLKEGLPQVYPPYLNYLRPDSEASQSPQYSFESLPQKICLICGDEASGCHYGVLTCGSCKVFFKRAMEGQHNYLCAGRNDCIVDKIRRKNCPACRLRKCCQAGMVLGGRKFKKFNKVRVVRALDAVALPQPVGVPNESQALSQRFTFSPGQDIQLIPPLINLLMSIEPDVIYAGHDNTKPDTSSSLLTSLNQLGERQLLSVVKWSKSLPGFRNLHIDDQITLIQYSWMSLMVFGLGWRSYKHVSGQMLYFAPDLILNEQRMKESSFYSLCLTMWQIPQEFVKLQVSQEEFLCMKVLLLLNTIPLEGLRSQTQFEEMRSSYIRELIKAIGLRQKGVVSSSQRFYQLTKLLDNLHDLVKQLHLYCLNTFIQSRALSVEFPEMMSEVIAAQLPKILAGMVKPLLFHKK
# Assay: T47D alkaline phosphatase assay for progesterone receptor modulator (antagonist) activity
# Type: cell-based
# Design: endogenous in cells; host or cells: T47D cells
# Settings: T47D cells
# Method: An assay was performed to identify compounds having progesterone receptor modulator activity. This assay identifies progestins or antiprogestins by determining a compound's effect on alkaline phosphatase activity in T47D cells.
# Culture medium: DMEM:F12 (1:1) (GIBCO, BRL) supplemented with 5% (v/v) charcoal stripped fetal bovine serum (not heat-inactivated), 100 U/mL penicillin, 100 μg/mL streptomycin, and 2 mM the GlutaMax® reagent (GIBCO, BRL).
# Alkaline phosphatase assay buffer: • I. 0.1M Tris-HCl, pH 9.8, containing 0.2% the Triton™ X-100 reagent • II. 0.1M Tris-HCl, pH 9.8, containing 4 mM p-nitrophenyl phosphate (Sigma).
# Frozen T47D cells are thawed in a 37° C. water bath and diluted to 280,000 cells/mL in culture medium. To each well in a 96-well plate (Falcon, Becton Dickinson Labware), 180 μL of diluted cell suspension is added.
# Twenty μL of reference or test compounds diluted in the culture medium is then added to each well. When testing for progestin antagonist activity, reference antiprogestins or test compounds are added in the presence of 1 nM progesterone. The cells are incubated at 37° C. in a 5% CO2/humidified atmosphere for 24 hours.
# For high throughput screening, one concentration of each compound will be tested at 0.3 μg/mL. Based on an average molecular weight of 300 g/mol for the compounds in the library, the concentration is approximately 1 μM. Subsequently, active compounds will be tested in dose response assays to determine EC50 and IC50.
# At the end of treatment, the medium is removed from the plate. Fifty μL of assay buffer I is added to each well. The plates are shaken in a titer plate shaker for 15 minutes. Then 150 μL of assay buffer II is added to each well. Optical density measurements are taken at 5 minute intervals for 30 minutes at a test wavelength of 405 nm.
# Analysis of dose-response data. For reference and test compounds, a dose response curve is generated for dose (x-axis) vs. the rate of enzyme reaction (slope) (y-axis). Square root-transformed data are used for analysis of variance and nonlinear dose response curve fitting for both agonist and antagonist modes. Huber weighting is used to down-weight the effects of outliers. EC50 or IC50 values are calculated from the retransformed values. The JMP® software (SAS Institute, Inc.) is used for both one-way analysis of variance and non-linear dose response analysis in both single dose and dose response studies.
# Progesterone and trimegestone are reference progestins and RU486 is the reference antiprogestin. All reference compounds are run in full dose response curves and the EC50 and IC50 values are calculated.
# In the table provided above, the IC50 values show the relative progesterone receptor antagonist activity in this assay. Lower numbers are indicative of higher potency, i.e., greater PR antagonist activity. Further, the assay has a standard deviation of about ±6.
row,Active Dose [µM],SMILES
1,3,"Cn1c(C#N)ccc1-c1ccc(NS(C)(=O)=O)c(C#N)c1 [Example 77, N-[2-cyano-4-(5-cyano-1-methyl-1H-pyrrol-2-yl)phenyl]methanesulfonamide]"
2,10,"CCS(=O)(=O)Nc1ccc(-c2ccc(C#N)n2C)c(F)c1 [Example 41, N-[4-(5-cyano-1-methyl-1H-pyrrol-2-yl)-3-fluorophenyl]ethanesulfonamide]"

# Same assay, conditions: T47D cells, antagonist mode in the presence of 1 nM progesterone, 24 hours
row,IC50 [µM],SMILES
1,0.0289,"Cn1c(C#N)ccc1-c1ccc(NS(C)(=O)=O)c(F)c1 [Example 26, N-[4-(5-cyano-1-methyl-1H-pyrrol-2-yl)-2-fluorophenyl]methane-sulfonamide]"
2,0.897,"Cn1c(C#N)ccc1-c1ccc(NC#N)c(Cl)c1 [Example 33, [2-chloro-4-(5-cyano-1-methyl-1H-pyrrol-2-yl)phenyl]cyanamide]"
3,0.0541,"Cn1c(C#N)ccc1-c1ccc(NC#N)cc1 [Example 28, [4-(5-cyano-1-methyl-1H-pyrrol-2-yl)-phenyl]cyanamide]"
4,0.0358,"CCS(=O)(=O)Nc1ccc(-c2ccc(C#N)n2C)cc1OC(F)(F)F [Example 60, N-[4-(5-cyano-1-methyl-1H-pyrrol-2-yl)-2-(trifluoromethoxy)phenyl]ethane-sulfonamide]"
5,0.0134,"Cn1c(C#N)ccc1-c1ccc(NS(C)(=O)=O)cc1C(F)(F)F [Example 52, N-[4-(5-cyano-1-methyl-1H-pyrrol-2-yl)-3-(trifluoromethyl)phenyl]methane-sulfonamide]"
6,< 0.3,"CC(C)c1cc(-c2ccc(C#N)n2C)ccc1NC#N [Example 32, [4-(5-cyano-1-methyl-1H-pyrrol-2-yl)-2-isopropylphenyl]cyanamide]"
7,0.0839,"COc1cc(NC#N)ccc1-c1ccc(C#N)n1C [Example 36, [4-(5-cyano-1-methyl-1H-pyrrol-2-yl)-3-methoxyphenyl]cyanamide]"
8,0.797,"C#CCn1c(C#N)ccc1-c1ccc(NS(=O)(=O)CC)cc1 [Example 70, N-[4-(5-cyano-1-prop-2-yn-1-yl-1H-pyrrol-2-yl)phenyl]ethanesulfonamide]"
9,0.18,"Cn1c(C#N)ccc1-c1ccc(N2CCCS2(=O)=O)cc1 [Example 57, 5-[4-(1,1-dioxidoisothiazolidin-2-yl)phenyl]-1-methyl-1H-pyrrole-2-carbonitrile]"
10,0.0221,"CCS(=O)(=O)Nc1cc(F)c(-c2ccc(C#N)n2C)cc1F [Example 47, N-[4-(5-cyano-1-methyl-1H-pyrrol-2-yl)-2,5-difluorophenyl]ethane-sulfonamide]"
11,0.198,"Cn1c(C#N)ccc1-c1ccc(NS(C)(=O)=O)cc1C#N [Example 74, N-[3-cyano-4-(5-cyano-1-methyl-1H-pyrrol-2-yl)phenyl]methanesulfonamide]"
12,0.721,"CCCn1c(C#N)ccc1-c1ccc(NS(=O)(=O)CC)cc1 [Example 67, N-[4-(5-cyano-1-propyl-1H-pyrrol-2-yl)phenyl]ethanesulfonamide]"
13,0.6,"C=CCn1c(C#N)ccc1-c1ccc(NS(=O)(=O)CC)cc1 [Example 69, N-[4-(1-allyl-5-cyano-1H-pyrrol-2-yl)phenyl]ethanesulfonamide]"
14,0.0038,"CCS(=O)(=O)Nc1ccc(-c2ccc(C#N)n2C)c(F)c1 [Example 41, N-[4-(5-cyano-1-methyl-1H-pyrrol-2-yl)-3-fluorophenyl]ethanesulfonamide]"
15,0.0086,"CCCCS(=O)(=O)Nc1cc(F)c(-c2ccc(C#N)n2C)c(F)c1 [Example 82, N-[4-(5-cyano-1-methyl-1H-pyrrol-2-yl)-3,5-difluorophenyl]butane-1-sulfonamide]"
16,< 0.3,"CCCc1cc(-c2ccc(C#N)n2C)ccc1NC#N [Example 31, [4-(5-cyano-1-methyl-1H-pyrrol-2-yl)-2-propylphenyl] cyanamide]"
17,0.0299,"CCS(=O)(=O)Nc1ccc(-c2ccc(C#N)n2C)cc1F [Example 27, N-[4-(5-cyano-1-methyl-1H-pyrrol-2-yl)-2-fluorophenyl]ethane-sulfonamide]"
18,0.0062,"CCCS(=O)(=O)Nc1cc(F)c(-c2ccc(C#N)n2C)c(F)c1 [Example 81, N-[4-(5-cyano-1-methyl-1H-pyrrol-2-yl)-3,5-difluorophenyl]propane-1-sulfonamide]"

# The next lines start with the compound.
row,SMILES,IC50 [µM]
1,"Cn1c(C#N)ccc1-c1ccc(NS(=O)(=O)c2ccccc2)cc1 [Example 21, N-[4-(5-cyano-1-methyl-1H-pyrrol-2-yl)phenyl]benzenesulfonamide]",~0.03
2,"CCC(=O)Nc1ccc(-c2ccc(C#N)n2C)cc1 [Example 6, N-[4-(5-cyano-1-methyl-1H-pyrrol-2-yl)phenyl]propanamide]",0.0767
3,"Cn1c(C#N)ccc1-c1ccc(NC(=O)C2CCCCC2)cc1 [Example 11, N-[4-(5-cyano-1-methyl-1H-pyrrol-2-yl)phenyl]cyclohexane-carboxamide]",0.325
4,"CCCS(=O)(=O)Nc1ccc(-c2ccc(C#N)n2C)cc1 [Example 16, N-[4-(5-cyano-1-methyl-1H-pyrrol-2-yl)phenyl]propane-1-sulfonamide]",0.0098
5,"CC(C)C(=O)Nc1ccc(-c2ccc(C#N)n2C)cc1 [Example 5, N-[4-(5-cyano-1-methyl-1H-pyrrol-2-yl)phenyl]-2-methylpropanamide]",0.168
6,"Cn1c(C#N)ccc1-c1ccc(NC(=O)Nc2ccc(-c3ccc(C#N)n3C)cc2)cc1 [Example 15, N,N′-bis[4-(5-cyano-1-methyl-1H-pyrrol-2-yl)phenyl]urea]",0.642
7,"CC(C)c1ccc(S(=O)(=O)Nc2ccc(-c3ccc(C#N)n3C)cc2)cc1 [Example 20, N-[4-(5-cyano-1-methyl-1H-pyrrol-2-yl)phenyl]-4-isopropylbenzenesulfonamide]",~3
8,"Cn1c(C#N)ccc1-c1ccc(N)c(F)c1 [Example 2, 5-(4-amino-3-fluorophenyl)-1-methyl-1H-pyrrole-2-carbonitrile]",0.0654
9,"CCCCS(=O)(=O)Nc1ccc(-c2ccc(C#N)n2C)cc1 [Example 18, N-[4-(5-cyano-1-methyl-1H-pyrrol-2-yl)phenyl]butane-1-sulfonamide]",~0.3
10,"Cn1c(C#N)ccc1-c1ccc(N(S(C)(=O)=O)S(C)(=O)=O)cc1 [Example 17, N-[4-(5-cyano-1-methyl-1H-pyrrol-2-yl)phenyl]-N-(methylsulfonyl)methane sulfonamide]",~0.3
11,"CC(=O)Nc1ccc(-c2ccc(C#N)n2C)cc1 [Example 8, N-[4-(5-cyano-1-methyl-1H-pyrrol-2-yl)phenyl]acetamide]",~0.3
12,"CC(C)CC(=O)Nc1ccc(-c2ccc(C#N)n2C)cc1 [Example 4, N-[4-(5-cyano-1-methyl-1H-pyrrol-2-yl)phenyl]-3-methylbutanamide]",0.304
13,"Cn1c(C#N)ccc1-c1ccc(NS(C)(=O)=O)cc1 [Example 25, N-[4-(5-cyano-1-methyl-1H-pyrrol-2-yl)phenyl]methanesulfonamide]",0.0082
14,"Cn1c(C#N)ccc1-c1ccc(NS(=O)(=O)CC(F)(F)F)cc1 [Example 19, N-[4-(5-cyano-1-methyl-1H-pyrrol-2-yl)phenyl]-2,2,2-trifluoroethanesulfonamide]",0.0584

# Same assay, conditions: T47D cells, at Active Dose 3000 nM
row,inhibition at 3 µM [%],SMILES
1,50,"Cn1c(C#N)ccc1-c1ccc(NS(C)(=O)=O)c(C#N)c1 [Example 77, N-[2-cyano-4-(5-cyano-1-methyl-1H-pyrrol-2-yl)phenyl]methanesulfonamide]"
